The source of these data is ChEMBL document CHEMBL5291721, “A preclinical secondary pharmacology resource illuminates target-adverse drug reaction associations of marketed drugs” (Nat Commun, 2023).

A value given as a limit tells only on which side of the number the result lay.

The target in experiment [1] is T1, Muscarinic acetylcholine receptor M2 (Homo sapiens, UniProt P08172).
T1 sequence (P08172 whole entry): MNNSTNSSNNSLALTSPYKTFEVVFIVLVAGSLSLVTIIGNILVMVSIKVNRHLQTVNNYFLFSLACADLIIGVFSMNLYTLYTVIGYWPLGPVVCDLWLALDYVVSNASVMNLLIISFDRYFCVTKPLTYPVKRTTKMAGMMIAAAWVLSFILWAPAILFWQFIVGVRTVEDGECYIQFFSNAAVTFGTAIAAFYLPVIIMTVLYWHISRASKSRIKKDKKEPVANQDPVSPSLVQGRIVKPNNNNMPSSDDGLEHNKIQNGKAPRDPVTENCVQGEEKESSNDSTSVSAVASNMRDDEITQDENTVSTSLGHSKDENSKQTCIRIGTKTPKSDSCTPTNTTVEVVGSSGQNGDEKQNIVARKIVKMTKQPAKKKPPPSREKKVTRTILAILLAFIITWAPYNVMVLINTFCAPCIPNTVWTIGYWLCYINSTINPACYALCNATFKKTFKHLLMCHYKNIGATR
Type of experiment: functional, cell-based.

Another experiment concerns the target T2, Adenosine receptor A3 (Homo sapiens, UniProt P0DMS8).
T2 sequence (P0DMS8 whole entry): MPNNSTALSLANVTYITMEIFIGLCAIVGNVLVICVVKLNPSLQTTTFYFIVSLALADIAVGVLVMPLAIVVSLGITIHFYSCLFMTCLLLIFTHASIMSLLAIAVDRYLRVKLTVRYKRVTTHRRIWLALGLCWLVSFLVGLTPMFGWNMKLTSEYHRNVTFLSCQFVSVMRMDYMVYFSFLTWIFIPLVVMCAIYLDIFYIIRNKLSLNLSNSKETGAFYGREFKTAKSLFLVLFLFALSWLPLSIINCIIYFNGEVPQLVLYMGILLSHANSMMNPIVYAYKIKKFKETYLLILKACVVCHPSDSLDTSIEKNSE

Experiment [2] has as its target T3, 5-hydroxytryptamine receptor 2C (Homo sapiens, UniProt P28335).
T3 sequence (P28335 whole entry): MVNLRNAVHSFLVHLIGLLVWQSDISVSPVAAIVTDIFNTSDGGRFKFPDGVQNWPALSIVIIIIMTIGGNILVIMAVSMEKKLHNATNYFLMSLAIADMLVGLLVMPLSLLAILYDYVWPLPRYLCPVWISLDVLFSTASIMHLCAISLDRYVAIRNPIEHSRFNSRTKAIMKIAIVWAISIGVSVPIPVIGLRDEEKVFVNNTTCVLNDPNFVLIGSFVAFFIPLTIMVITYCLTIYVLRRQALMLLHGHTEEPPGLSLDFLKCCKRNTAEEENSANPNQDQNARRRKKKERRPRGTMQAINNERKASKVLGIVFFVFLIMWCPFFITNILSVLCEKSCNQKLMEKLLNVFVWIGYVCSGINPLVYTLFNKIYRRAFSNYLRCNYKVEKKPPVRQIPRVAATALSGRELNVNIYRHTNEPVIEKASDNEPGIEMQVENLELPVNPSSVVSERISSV

Experiment [3] concerns the target T4, 5-hydroxytryptamine receptor 3A (Homo sapiens, UniProt P46098).
T4 sequence (P46098 whole entry): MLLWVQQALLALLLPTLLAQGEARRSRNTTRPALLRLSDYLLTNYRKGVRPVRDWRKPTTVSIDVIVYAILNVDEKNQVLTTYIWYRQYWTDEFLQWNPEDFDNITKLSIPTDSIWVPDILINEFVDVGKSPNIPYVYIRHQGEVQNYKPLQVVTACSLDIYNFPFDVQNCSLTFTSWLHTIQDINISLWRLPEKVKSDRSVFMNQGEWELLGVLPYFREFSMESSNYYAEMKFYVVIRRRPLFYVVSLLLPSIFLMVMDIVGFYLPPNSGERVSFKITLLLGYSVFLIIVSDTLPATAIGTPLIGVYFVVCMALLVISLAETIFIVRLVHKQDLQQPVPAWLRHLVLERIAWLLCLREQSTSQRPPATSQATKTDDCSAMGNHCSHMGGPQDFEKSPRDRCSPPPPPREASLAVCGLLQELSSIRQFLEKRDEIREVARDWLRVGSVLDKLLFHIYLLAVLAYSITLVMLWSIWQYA
Type of experiment: functional.

The target in another experiment is Vasopressin V2 receptor (Homo sapiens, UniProt P30518).
The target of experiment [4] is T5, Alpha-2A adrenergic receptor (Homo sapiens, UniProt P08913).
T5 sequence (P08913 whole entry): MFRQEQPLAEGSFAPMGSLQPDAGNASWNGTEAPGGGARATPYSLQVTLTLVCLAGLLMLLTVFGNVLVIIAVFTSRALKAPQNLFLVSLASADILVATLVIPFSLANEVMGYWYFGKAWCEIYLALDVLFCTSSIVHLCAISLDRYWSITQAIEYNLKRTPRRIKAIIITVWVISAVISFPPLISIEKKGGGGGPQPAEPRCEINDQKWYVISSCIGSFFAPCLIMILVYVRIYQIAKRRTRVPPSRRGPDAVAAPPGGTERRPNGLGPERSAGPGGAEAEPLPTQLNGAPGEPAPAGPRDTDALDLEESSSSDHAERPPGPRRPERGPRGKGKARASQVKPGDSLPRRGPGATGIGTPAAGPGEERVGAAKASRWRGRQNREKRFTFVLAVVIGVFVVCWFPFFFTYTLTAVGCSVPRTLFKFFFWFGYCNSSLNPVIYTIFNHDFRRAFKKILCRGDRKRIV
The experiment is classed as functional, cell-based.

In a further experiment the target is T6, B2 bradykinin receptor (Homo sapiens, UniProt P30411).
T6 sequence (P30411 whole entry): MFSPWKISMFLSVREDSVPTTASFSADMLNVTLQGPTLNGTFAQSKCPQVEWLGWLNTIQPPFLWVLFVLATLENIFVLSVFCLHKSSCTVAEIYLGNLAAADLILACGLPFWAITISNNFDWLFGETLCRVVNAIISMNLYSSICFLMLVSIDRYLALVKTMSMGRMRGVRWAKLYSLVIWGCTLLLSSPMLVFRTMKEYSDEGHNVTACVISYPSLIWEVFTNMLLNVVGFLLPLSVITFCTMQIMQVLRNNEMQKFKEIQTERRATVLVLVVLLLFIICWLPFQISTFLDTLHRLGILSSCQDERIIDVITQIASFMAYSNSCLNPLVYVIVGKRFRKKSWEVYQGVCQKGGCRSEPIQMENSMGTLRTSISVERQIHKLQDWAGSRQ
Also: assay procedure not described here.

Chain of Vasopressin V2 receptor (P30518 whole entry): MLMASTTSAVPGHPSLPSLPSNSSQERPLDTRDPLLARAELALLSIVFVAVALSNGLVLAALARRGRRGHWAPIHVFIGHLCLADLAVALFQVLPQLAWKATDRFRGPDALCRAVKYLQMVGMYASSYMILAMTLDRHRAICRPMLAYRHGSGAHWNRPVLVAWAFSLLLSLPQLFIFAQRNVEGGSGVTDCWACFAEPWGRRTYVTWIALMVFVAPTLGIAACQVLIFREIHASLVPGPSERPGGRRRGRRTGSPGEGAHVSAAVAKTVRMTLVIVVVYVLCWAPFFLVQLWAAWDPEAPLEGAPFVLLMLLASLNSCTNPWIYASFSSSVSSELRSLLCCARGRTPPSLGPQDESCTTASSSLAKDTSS

As a reminder, the AC50 is the midpoint of the concentration-response curve, whichever way the signal moves. A higher AC50 goes with weaker potency. `Cc1ccc(C)c(OCCCC(C)(C)C(=O)O)c1` [GEMFIBROZIL]: the AC50 was more than 10 µM in experiment [1]; more than 30 µM on Adenosine receptor A3; more than 30 µM in experiment [2]; more than 30 µM in experiment [3]; more than 30 µM on Vasopressin V2 receptor; more than 10 µM in experiment [4]. In addition, the AC50 at B2 bradykinin receptor is more than 30 µM.
Consider `O=C(O)Cc1ccccc1Nc1c(Cl)cccc1Cl` [DICLOFENAC], for which the concentration at half-maximal activity (AC50) in experiment [1] is more than 10 µM; at Adenosine receptor A3, more than 3 µM; in experiment [2] it was more than 10 µM; in experiment [3] it was more than 10 µM; at Vasopressin V2 receptor, more than 30 µM; in experiment [4] it was more than 10 µM. Also, on B2 bradykinin receptor, the AC50 is more than 30 µM.
On to `CCCc1nc2c(C)cc(-c3nc4ccccc4n3C)cc2n1Cc1ccc(-c2ccccc2C(=O)O)cc1`, for which the AC50 in experiment [1] was more than 30 µM; at Adenosine receptor A3 it was 17.4 µM; in experiment [2], more than 30 µM; in experiment [3], more than 30 µM; at Vasopressin V2 receptor, more than 30 µM; in experiment [4], 3.96 µM. The molecule also gave an AC50 at B2 bradykinin receptor of more than 30 µM.
Take `O=C1Cc2cc(CCN3CCN(c4nsc5ccccc45)CC3)c(Cl)cc2N1` [ZIPRASIDONE]: the AC50 in experiment [1] was more than 10 µM; on Adenosine receptor A3, 8.66 µM; in experiment [3] it was more than 10 µM; at Vasopressin V2 receptor, more than 30 µM; at B2 bradykinin receptor, more than 30 µM.
With `CCNC(=O)/C=C(C)/C=C/C=C(C)/C=C/c1c(C)cc(OC)c(C)c1C` [MOTRETINIDE], the AC50 at Adenosine receptor A3 turned out to be 2.24 µM.
Still for that read-out and setting: then `C[N+](C)(CCCCCC[N+](C)(C)C1c2ccccc2-c2ccccc21)C1c2ccccc2-c2ccccc21` [HEXAFLUORENIUM], with more than 30 µM; and `Cc1cc(=O)[nH]c(=S)[nH]1` [METHYLTHIOURACIL], with more than 30 µM; and `CC[C@@H]1C[C@]1(NC(=O)[C@@H]1C[C@@H]2CN1C(=O)[C@H](C(C)(C)C)NC(=O)OCC(C)(C)CCCCc1cccc3c1CN(C3)C(=O)O2)C(=O)NS(=O)(=O)C1CC1`, with 12.6 µM.
With `O=C(O)Cc1ccccc1Oc1ccc(Cl)cc1Cl` [FENCLOFENAC], the AC50 is more than 10 µM in experiment [1]; more than 30 µM on Adenosine receptor A3; more than 30 µM in experiment [2]; more than 30 µM in experiment [3]; more than 30 µM at Vasopressin V2 receptor; more than 10 µM in experiment [4]. On B2 bradykinin receptor, this molecule returned a concentration at half-maximal activity (AC50) of more than 30 µM.
As to `COC(=O)[C@@H](N)Cc1ccc(O)c(O)c1` [MELEVODOPA], the AC50 on Adenosine receptor A3 is more than 30 µM.
The same measure, in the same setting: then `Cc1cc(=O)oc2cc(O)ccc12` [HYMECROMONE], with more than 30 µM.
Same read-out and setting: the result for `C[C@H]1O[C@@H](O[C@H]2CC[C@@]3(C)[C@H](CC[C@@H]4[C@@H]3C[C@@H](O)[C@]3(C)[C@@H](C5=CC(=O)OC5)CC[C@]43O)C2)C[C@H](O)[C@@H]1O[C@H]1C[C@H](O)[C@H](O[C@H]2C[C@H](O)[C@H](O[C@@H]3O[C@H](CO)[C@@H](O)[C@H](O)[C@H]3O)[C@@H](C)O2)[C@@H](C)O1` [DESLANOSIDE] reads more than 30 µM; that for `C=C(C)CNc1ccc(C(C)C(=O)O)cc1` (stereo not drawn) [ALMINOPROFEN], more than 30 µM.
`Cc1cc(C2CCCCC2)n(O)c(=O)c1` [CICLOPIROX]: the AC50 (in experiment [1]; at Adenosine receptor A3) was more than 30 µM throughout.
Regarding `CC(C(=O)O)c1cccc(Oc2ccccc2)c1` (stereo not drawn) [FENOPROFEN], the AC50 at Adenosine receptor A3 was more than 30 µM.
The same measure, in the same setting: the result for `O=C(O)CN(CCN(CC(=O)O)CC(=O)O)CCN(CC(=O)O)CC(=O)O` [PENTETIC ACID] reads more than 30 µM.
Same read-out and setting: then `C=N[C@@H](C(=O)N[C@@H]1C(=O)N2[C@@H]1SC(C)(C)[C@@H]2C(=O)O)c1ccccc1` [METAMPICILLIN], with more than 30 µM; and `Nc1cccc2c1C(=O)N(C1CCC(=O)NC1=O)C2=O` (stereo not drawn) [POMALIDOMIDE], with more than 30 µM; and `CN(C)c1ccc(O)c2c1C[C@H]1C[C@H]3[C@H](N(C)C)C(O)=C(C(N)=O)C(=O)[C@@]3(O)C(O)=C1C2=O` [MINOCYCLINE], with more than 30 µM.
